Reference: ChEMBL document CHEMBL1201862, “PubChem BioAssay data set” (2004)
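Dose response: 5 concentrations. Exposure: 48 h. Format: 96-well plates. Endpoint: linear interpolation; highest concentration if not reached. GI50 = concentration required for 50% inhibition of growth.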 Activity calls are given as the source filed them. Rule as the data show it: active = GI50 up to about 1.1 µM and inactive = higher.

Key:
Assay in all cases: inhibition of tumour cell growth, NCI panel, 48 h
[1] = tested on: SNB-19
[2] = tested on: SK-OV-3
[3] = tested on: SK-MEL-5
[4] = tested on: HT-29
[5] = tested on: OVCAR-5
[6] = tested on: HCT-116
[7] = tested on: SNB-75
[8] = tested on: NCI-H226
[9] = tested on: XF498
[10] = tested on: ACHN
[11] = tested on: NCI-H23
[12] = tested on: SK-MEL-28
[13] = tested on: HL-60
[14] = tested on: A549
[15] = tested on: RPMI-8226
[16] = tested on: U-251
[17] = tested on: NCI-H522
[18] = tested on: SR
[19] = tested on: HOP-92
[20] = tested on: DLD-1
[21] = tested on: EKVX
[22] = tested on: Malme-3M
[23] = tested on: A498
[24] = tested on: HOP-62
[25] = tested on: SN12C
[26] = tested on: DMS-114
[27] = tested on: NCI-H460
[28] = tested on: UACC-62
[29] = tested on: SF-295
[30] = tested on: OVCAR-4
[31] = tested on: UO-31
[32] = tested on: M14
[33] = tested on: COLO 205
[34] = tested on: IGROV-1
[35] = tested on: LOX IMVI
[36] = tested on: HCC 2998
[37] = tested on: OVCAR-8
[38] = tested on: CAKI-1
[39] = tested on: RXF 631
[40] = tested on: OVCAR-3
[41] = tested on: CCRF-CEM
[42] = tested on: SW-620
[43] = tested on: HOP-18
[44] = tested on: DMS-273
[45] = tested on: MOLT-4
[46] = tested on: SK-MEL-2
[47] = tested on: SF-268
[48] = tested on: KM12
[49] = tested on: TK-10
[50] = tested on: RXF 393
[51] = tested on: 786-0
[52] = tested on: UACC-257
[53] = tested on: K562
[54] = tested on: LXFL 529
[55] = tested on: SNB-78
[56] = tested on: HCT-15
[57] = tested on: KM-20L2
[58] = tested on: M19-MEL
[59] = tested on: SF-539

Measured: GI50

CC(C)(C)CC(C)(C)c1ccc(OCCOCC[N+](C)(C)Cc2ccccc2)cc1 [BENZETHONIUM CHLORIDE]
20.5 µM: [56]
inactive: [1] 3.1 µM | [2] 7.43 µM | [3] 1.39 µM | [4] 1.6 µM | [5] 6.17 µM | [6] 1.71 µM | [7] 2.43 µM | [8] 5.19 µM | [10] 11.6 µM | [11] 1.66 µM | [12] 1.86 µM | [14] 8.71 µM | [15] 1.29 µM | [16] 1.54 µM | [17] 1.66 µM | [18] 2.03 µM | [19] 1.88 µM | [20] 4.21 µM | [21] 4.2 µM | [22] 1.52 µM | [23] 16.6 µM | [24] 8.93 µM | [25] 3.52 µM | [26] 1.15 µM | [27] 3.05 µM | [28] 1.36 µM | [29] 11 µM | [30] 2.06 µM | [31] 21.6 µM | [32] 2.08 µM | [33] 1.49 µM | [34] 1.52 µM | [35] 1.42 µM | [36] 1.5 µM | [37] 3.19 µM | [38] 10.1 µM | [39] 11.9 µM | [40] 1.52 µM | [41] 1.79 µM | [42] 2.69 µM | [43] 2.79 µM | [44] 1.44 µM | [45] 2.22 µM | [46] 2.06 µM | [47] 1.94 µM | [48] 1.61 µM | [49] 3.64 µM | [50] 3.11 µM | [51] 5.01 µM | [52] 1.45 µM | [53] 2.19 µM | [54] 1.32 µM | [55] 1.63 µM | [57] 3.89 µM | [58] 1.53 µM
active: [9] 0.377 µM | [13] 0.883 µM

CCOC(=O)C1=C(NC(C)(C)C)OC/C1=N\NC(=O)Cc1ccccc1
> 100 µM: [56]
inactive: [1] > 100 µM | [2] > 100 µM | [3] > 100 µM | [4] > 100 µM | [5] > 100 µM | [6] > 100 µM | [7] 27.9 µM | [8] > 100 µM | [9] > 100 µM | [10] > 100 µM | [11] > 100 µM | [12] > 100 µM | [13] > 100 µM | [14] > 100 µM | [16] > 100 µM | [17] > 100 µM | [18] > 100 µM | [19] > 100 µM | [20] > 100 µM | [21] > 100 µM | [22] > 100 µM | [23] > 100 µM | [24] > 100 µM | [25] > 100 µM | [26] > 100 µM | [27] > 100 µM | [28] > 100 µM | [29] > 100 µM | [30] > 100 µM | [31] > 100 µM | [32] > 100 µM | [33] > 100 µM | [34] > 100 µM | [35] > 100 µM | [36] > 100 µM | [37] > 100 µM | [38] > 100 µM | [39] > 100 µM | [40] > 100 µM | [41] > 100 µM | [42] > 100 µM | [43] > 100 µM | [44] > 100 µM | [45] > 100 µM | [46] > 100 µM | [47] > 100 µM | [48] > 100 µM | [49] > 100 µM | [50] > 100 µM | [51] > 100 µM | [52] > 100 µM | [53] > 100 µM | [54] > 100 µM | [55] > 100 µM | [57] > 100 µM | [59] > 100 µM | [58] > 100 µM

COC(=O)C(C(=O)C(=O)Nc1cccc([N+](=O)[O-])c1)c1nc2ccc([N+](=O)[O-])cc2nc1O (stereo not drawn)
inactive: [1] > 100 µM | [2] > 100 µM | [3] > 100 µM | [4] > 100 µM | [5] > 100 µM | [6] > 100 µM | [7] 70.6 µM | [8] > 100 µM | [9] > 100 µM | [10] > 100 µM | [11] > 100 µM | [12] > 100 µM | [13] > 100 µM | [14] > 100 µM | [16] > 100 µM | [17] > 100 µM | [18] > 100 µM | [20] > 100 µM | [21] > 100 µM | [22] > 100 µM | [23] > 100 µM | [24] > 100 µM | [25] > 100 µM | [26] > 100 µM | [27] > 100 µM | [28] > 100 µM | [29] > 100 µM | [30] > 100 µM | [31] > 100 µM | [32] > 100 µM | [33] > 100 µM | [34] > 100 µM | [35] > 100 µM | [36] > 100 µM | [37] > 100 µM | [38] > 100 µM | [39] > 100 µM | [40] > 100 µM | [41] > 100 µM | [42] > 100 µM | [43] > 100 µM | [44] > 100 µM | [45] > 100 µM | [46] > 100 µM | [47] > 100 µM | [48] > 100 µM | [49] > 100 µM | [50] > 100 µM | [51] > 100 µM | [52] > 100 µM | [53] > 100 µM | [54] > 100 µM | [55] > 100 µM | [57] > 100 µM | [59] > 100 µM | [58] > 100 µM
> 100 µM: [56]
